# According to patent publication US8609731B2, “Substituted tetrahydronaphthalenes, process for the preparation thereof and the use thereof as medicaments” (SANOFI, priority 2007, dated 2013):
# Test system: not listed separately
# Assay: physchem
# Type: physicochemical
# Conditions: pH 7.4, aqueous buffer, kinetic from dmso stock
# Protocol: A DMSO solution of the test compound (2.5 mM; 0.5 μl) is pipetted into 200 μl of an aqueous test solution (e.g. phosphate-buffered saline, 10×, 1M, Sigma, adjusted to 10 mM, pH 7.4) in a 96-well microtiter plate, and the turbidity is measured at the resulting theoretical concentration for the test compound of 6.25 μM using a nephelometer (e.g. Nephelostar Galaxy, BMG Labtech). The concentration of the test compound in the aqueous test solution is then raised to a theoretical 12.5 μM by adding further DMSO solution (2.5 mM; 0.5 μl), and the turbidity measurement is repeated. Further additions of DMSO solutions (1 μl, 2.5 mM; 0.5 μl, 10 mM; then 9×1 μl, 10 mM resulting in theoretical concentrations of 25 μM, 50 μM, 100 μM, 150 μM, 200 μM, 250 μM, 300 μM, 350 μM, 400 μM, 450 μM and 500 μM) with turbidity measurement in between complete the measurement process.
# Evaluation: The turbidity values from the nephelometer are plotted against the theoretical concentration of the test compound in the aqueous test solution. As soon as a significant turbidity is detected (e.g. 5 times above the control value of the aqueous test solution) at a theoretical concentration, the level of concentration below this is stated to be the solubility limit of the test compound in the test solution. Thus, the maximum possible measurement range emerges as values <6.25 μM, 6.25−500 μM and >500 μM.
row,solubility kinetic [µM],Compound
1,> 500,O=C(N[C@H]1CCc2cc(CNC3CCCCC3)ccc2C1)c1ccc(OC[C@@H]2CCCO2)cc1 [Example 3-6]

# Biological target: T1, hERG channel (Homo sapiens, UniProt Q12809)
# T1 construct: expressed in transfected cells; host or cells: CHO cells (ATCC), pcDNA3 vector, G418 selection
# T1 sequence (Q12809 whole entry): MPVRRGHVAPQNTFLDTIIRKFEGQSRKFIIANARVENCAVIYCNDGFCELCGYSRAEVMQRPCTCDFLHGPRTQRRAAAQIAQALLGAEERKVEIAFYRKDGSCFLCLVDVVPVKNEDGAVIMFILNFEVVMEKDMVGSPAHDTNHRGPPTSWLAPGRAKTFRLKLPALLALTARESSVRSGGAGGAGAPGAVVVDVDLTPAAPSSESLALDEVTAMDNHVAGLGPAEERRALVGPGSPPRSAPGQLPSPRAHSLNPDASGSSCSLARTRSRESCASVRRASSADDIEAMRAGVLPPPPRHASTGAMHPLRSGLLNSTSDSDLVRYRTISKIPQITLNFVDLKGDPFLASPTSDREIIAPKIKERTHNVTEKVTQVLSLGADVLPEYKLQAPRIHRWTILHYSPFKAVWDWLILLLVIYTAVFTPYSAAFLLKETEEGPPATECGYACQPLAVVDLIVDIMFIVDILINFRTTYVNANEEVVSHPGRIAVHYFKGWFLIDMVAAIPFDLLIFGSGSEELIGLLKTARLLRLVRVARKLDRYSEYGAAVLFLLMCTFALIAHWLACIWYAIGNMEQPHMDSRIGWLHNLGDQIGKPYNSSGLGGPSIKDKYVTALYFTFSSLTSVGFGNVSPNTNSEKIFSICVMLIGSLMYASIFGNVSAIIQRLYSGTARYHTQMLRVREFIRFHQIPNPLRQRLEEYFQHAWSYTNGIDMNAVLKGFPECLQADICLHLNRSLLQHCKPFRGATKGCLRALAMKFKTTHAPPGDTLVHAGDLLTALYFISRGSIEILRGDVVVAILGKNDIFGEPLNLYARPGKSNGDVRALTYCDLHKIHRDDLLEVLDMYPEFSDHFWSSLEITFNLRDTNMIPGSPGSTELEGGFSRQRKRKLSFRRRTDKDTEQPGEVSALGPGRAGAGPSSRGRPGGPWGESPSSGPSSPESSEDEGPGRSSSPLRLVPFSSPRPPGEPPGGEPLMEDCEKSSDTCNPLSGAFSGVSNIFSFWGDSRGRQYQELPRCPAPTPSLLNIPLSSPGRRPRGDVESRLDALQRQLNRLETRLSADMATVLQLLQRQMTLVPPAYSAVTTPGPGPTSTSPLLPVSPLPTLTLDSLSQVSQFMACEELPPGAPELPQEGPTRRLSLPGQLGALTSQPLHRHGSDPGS
# Assay: hERG channel blockade, whole-cell patch clamp in CHO cells expressing hERG
# Type: cell-based
# Conditions: CHO cells with stable hERG expression, room temperature, read-out: hERG Inh. IC50
# Excerpt: The aim of the test is to determine the concentration range in which the test compound blocks the cardiac hERG channel. Blockade of the hERG channel, which is responsible for the Ikr current in the human heart, is associated with potentially fatal arrhythmias.
# For expression of the cDNA encoding the hERG channel it was cloned into the pcDNA3 vector (Invitrogen). Chinese hamster […] (CHO, American Type Culture Collection, Rockville, Md.) were transfected using lipofectamine (GIBCO/BRL, Grand Island, N.Y.) with the hERG cDNA and selected using G418 (GIBCO/BRL, Grand Island, N.Y.; 500 μg/ml). CHO cells with stable expression of the hERG channel were cultured on a HAM F-12 medium which was supplemented with 10% native bovine serum, 1× penicillin/streptomycin and 500 μg/ml G418 in an atmosphere of 95% air/5% carbon dioxide.
# The cells selected for the patch clamp experiment are seeded on a plastic support 18-24 hours before the experiment. HERG channel currents are recorded at room temperature by the whole-cell variant of the patch clamp technique using an Axopatch 200B amplifier (Axon Instruments, Foster City, Calif.). The electrodes (3-6 megaohms resistance) are prepared from TW150F glass capillaries (World Precision Instruments, Sarasota, Fla.) and filled with the pipette solution (120 mM potassium aspartate, 20 mM KCl, 4 mM Na2ATP, 5 mM HEPES, 1 mM MgCl2; adjusted to pH 7.2 with KOH). The hERG channel currents are induced by a positive voltage pulse (20 mV) followed by a negative pulse (−40 mV) and are recorded for later analysis. As soon as the hERG channel current of the cell flushed with the control solution ([…], 5 mM KCl, 2.8 mM NaOAc, 1 mM MgCl2, 10 mM HEPES; 10 mM glucose, 1 mM CaCl2; adjusted to pH 7.4 with NaOH) is stable, the cell is perfused with the test compound dissolved in the above control solution (by dilution of a 10 or 100 mM DMSO solution of the test compound so that the DMSO content is no more than 0.1%). The current is followed continuously until no further changes occur. The same procedure is repeated with increasing concentrations of the test compound. The maximum amplitude of the hERG current is measured in picoAmperes (pA) for each concentration and for each cell. The maximum amplitude in pA for each concentration of the test compound is compared with that of the pure control solution in the same cell and calculated as % of the control value.
# Evaluation: The test compound is tested at various concentrations in 3-5 CHO cells which express the hERG channel. The IC50 is obtained by use of nonlinear least squares regression (GraphPAD Software, San Diego, Calif.).
row,Compound,IC50 [µM]
1,O=C(N[C@H]1CCc2cc(CNC3CCCCC3)ccc2C1)c1ccc(OC[C@@H]2CCCO2)cc1 [Example 3-6],> 10

# Biological target: T2, human MCH receptor (Homo sapiens, UniProt Q99705)
# T2 construct: expressed in transfected cells
# T2 sequence (Q99705 whole entry): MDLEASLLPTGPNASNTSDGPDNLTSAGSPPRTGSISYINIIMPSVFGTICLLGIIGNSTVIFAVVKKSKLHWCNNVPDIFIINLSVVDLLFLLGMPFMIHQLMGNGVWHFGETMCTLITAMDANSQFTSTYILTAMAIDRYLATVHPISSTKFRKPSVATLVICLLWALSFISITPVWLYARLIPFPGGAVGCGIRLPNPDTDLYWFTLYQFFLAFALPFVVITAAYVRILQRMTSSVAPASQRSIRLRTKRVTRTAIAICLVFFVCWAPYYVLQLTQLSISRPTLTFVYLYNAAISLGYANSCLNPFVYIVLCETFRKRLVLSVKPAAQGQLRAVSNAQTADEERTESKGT
# Assay: calcium mobilization assay (FLIPR); functional IC50 of MCH1R antagonists
# Type: cell-based
# Conditions: recombinant HEK293 cell line expressing human MCH receptor; calcium flux after addition of agonist MCH
# Excerpt: Influence on the MCH Receptor In Vitro; Determination of Functional IC50 Values of MCH1R Antagonists
# Cloning of the cDNA for the human MCH receptor, preparation of a recombinant HEK293 cell line which expresses the human MCH receptor, and functional measurements with the recombinant cell line took place in analogy to the description by Audinot et al. (J. Biol. Chem. 2001, 276, 13554-13562). A difference from the reference was, however, the use of the plasmid pEAK8 from EDGE Biosystems (USA) for the construction of the expression vector. The host used for the transfection was a transformed HEK cell line named “PEAK Stable Cells” (likewise from EDGE Biosystems). Functional measurements of the cellular calcium flux after addition of agonist (MCH) in the presence of ligand of the invention took place with the aid of the FLIPR apparatus from Molecular Devices (USA), using protocols of the apparatus manufacturer. The compounds of the invention show a significant inhibition (>30%) of the signal induced by the agonist at a concentration of 100 μM, preferably at 10 μM, particularly preferably at 1 μM, very particularly preferably at 100 nM and very very particularly preferably at 10 nM.
row,Compound,IC50 [nM]
1,"CN(C(=O)c1ccc(OC[C@@H]2CCCO2)cc1)[C@H]1CCc2cc(CN3CCCC3)ccc2C1 [Example 2, N-Methyl-N-((S)-6-pyrrolidin-1-ylmethyl-1,2,3,4-tetrahydronaphthalen-2-yl)-4-[(S)-1-(tetrahydrofuran-2-yl)methoxy]benzamide]",670
2,O=C(N[C@@H]1CCc2cc(CN3CCCC3)ccc2C1)c1ccc(OC[C@@H]2CCCO2)cc1 [Example 3-2],3290
3,COC(=O)CNCc1ccc2c(c1)CC[C@H](NC(=O)c1ccc(OC[C@@H]3CCCO3)cc1)C2 [Example 3-26],360
4,O=C(N[C@H]1CCc2cc(CNCCCN3CCCC3=O)ccc2C1)c1ccc(OC[C@@H]2CCCO2)cc1 [Example 3-33],270
5,CN1CCN(Cc2ccc3c(c2)CC[C@H](NC(=O)c2ccc(OC[C@@H]4CCCO4)cc2)C3)CC1 [Example 3-37],340
6,CC(=O)N1CCN(Cc2ccc3c(c2)CC[C@H](NC(=O)c2ccc(OC[C@@H]4CCCO4)cc2)C3)CC1 [Example 3-44],310
7,O=C(N[C@H]1CCc2cc(CN3C[C@H]4CC[C@H](CC4)C3)ccc2C1)c1ccc(OC[C@@H]2CCCO2)cc1 [Example 3-48],210
8,Cc1ccc(CNCc2ccc3c(c2)CC[C@H](NC(=O)c2ccc(OC[C@@H]4CCCO4)cc2)C3)o1 [Example 3-51],190
9,O=C(N[C@H]1CCc2cc(CNCC3OCCO3)ccc2C1)c1ccc(OC[C@@H]2CCCO2)cc1 [Example 3-61],300
10,Cc1cc(CNCc2ccc3c(c2)CC[C@H](NC(=O)c2ccc(OC[C@@H]4CCCO4)cc2)C3)no1 [Example 3-71],750
11,O=C1CN(Cc2ccc3c(c2)CC[C@H](NC(=O)c2ccc(OC[C@@H]4CCCO4)cc2)C3)CCN1 [Example 3-72],1850
12,O=C(N[C@H]1CCc2cc(CN3C[C@@H]4C[C@H]3CO4)ccc2C1)c1ccc(OC[C@@H]2CCCO2)cc1 [Example 3-100],330
13,COc1ccc(CNCc2ccc3c(c2)CC[C@H](NC(=O)c2ccc(OC[C@@H]4CCCO4)cc2)C3)cn1 [Example 3-103],200
14,O=C(N[C@H]1CCc2cc(CN3CCn4cnnc4C3)ccc2C1)c1ccc(OC[C@@H]2CCCO2)cc1 [Example 3-120],2410
15,"CC(C)(C)CNC(C)(C)c1ccc2c(c1)CC[C@H](NC(=O)c1ccc(OC[C@@H]3CCCO3)cc1)C2 [Example 8-1, N-{(S)-6-[1-(2,2-Dimethylpropylamino)-1-methylethyl]-1,2,3,4-tetrahydro-naphthalen-2-yl}-4-[(S)-1-(tetrahydrofuran-2-yl)methoxy]benzamide]",240
16,CC(C)CN1CCCC(c2ccc3c(c2)CC[C@H](NC(=O)c2ccc(OC[C@@H]4CCCO4)cc2)C3)C1 (some centres unmarked) [Example 8-3],230
17,O=C(N[C@H]1CCc2cc([C@@H]3CCCN(C4CCOCC4)C3)ccc2C1)c1ccc(OC[C@@H]2CCCO2)cc1 [Example 8-26],230
18,CC1(COc2ccc(C(=O)N[C@H]3CCc4cc(CN5CCCCCC5)ccc4C3)cc2)COC1 [Example 9-2],1280
19,O=C(N[C@H]1CCc2cc(CN3CCCCCC3)ccc2C1)c1ccc(OCC2CCOCC2)cc1 [Example 9-4],440
20,O=C(N[C@H]1CCc2cc(CN3CCCCCC3)ccc2C1)c1ccc(OCC2CCCCO2)cc1 (some centres unmarked) [Example 9-5],310
21,"O=C(N[C@H]1CCc2cc(CN3CCCCCC3)ccc2C1)c1ccc(OC[C@@H]2CCCO2)c(F)c1 [Example 12, N-((S)-6-Azepan-1-ylmethyl-1,2,3,4-tetrahydronaphthalen-2-yl)-3-fluoro-4-[(S)-1-(tetrahydrofuran-2-yl)methoxy]benzamide]",300
22,"COC1CCN(Cc2ccc3c(c2)CC[C@H](n2ccc4cc(OC[C@@H]5CCCO5)ccc4c2=O)C3)CC1 [Example 13, 2-[(S)-6-(4-Methoxypiperidin-1-ylmethyl)-1,2,3,4-tetrahydronaphthalen-2-yl]-6-[(S)-1-(tetrahydrofuran-2-yl)methoxy]-2H-isoquinolin-1-one]",1400

# Continued, values first:
row,IC50 [nM],Compound
1,100,O=C(N[C@H]1CCc2cc(CN3CC4CCCC4C3)ccc2C1)c1ccc(OC[C@@H]2CCCO2)cc1 (some centres unmarked) [Example 3-14]
2,130,O=C(N[C@H]1CCc2cc(CNCCCn3ccnc3)ccc2C1)c1ccc(OC[C@@H]2CCCO2)cc1 [Example 3-32]
3,180,O=C(N[C@H]1CCc2cc(CN3CCC(O)CC3)ccc2C1)c1ccc(OC[C@@H]2CCCO2)cc1 [Example 3-40]
4,180,CS(=O)(=O)CCNCc1ccc2c(c1)CC[C@H](NC(=O)c1ccc(OC[C@@H]3CCCO3)cc1)C2 [Example 3-64]
5,120,O=C(N[C@H]1CCc2cc(CN3CCCOCC3)ccc2C1)c1ccc(OC[C@@H]2CCCO2)cc1 [Example 3-77]
6,170,N#CC1CCN(Cc2ccc3c(c2)CC[C@H](NC(=O)c2ccc(OC[C@@H]4CCCO4)cc2)C3)CC1 [Example 3-84]
7,120,O=C(N[C@H]1CCc2cc(CN3CC[C@@H](F)C3)ccc2C1)c1ccc(OC[C@@H]2CCCO2)cc1 [Example 3-86]
8,150,CC(C)(C)CNCCc1ccc2c(c1)CC[C@H](NC(=O)c1ccc(OC[C@@H]3CCCO3)cc1)C2 [Example 3-135]
9,90,O=C(N[C@H]1CCc2cc(CN3CCC4(CCCC4)C3)ccc2C1)c1ccc(OC[C@@H]2CCCO2)cc1 [Example 3-194]
10,110,CC1(CNCc2ccc3c(c2)CC[C@H](NC(=O)c2ccc(OC[C@@H]4CCCO4)cc2)C3)CCCC1 [Example 3-195]
11,180,CN1CCCCC1c1ccc2c(c1)CC[C@H](NC(=O)c1ccc(OC[C@@H]3CCCO3)cc1)C2 (some centres unmarked) [Example 8-8]
12,120,CC(C)CCN[C@H](C)c1ccc2c(c1)CC[C@H](NC(=O)c1ccc(OC[C@@H]3CCCO3)cc1)C2 [Example 8-16]
13,170,O=C(N[C@H]1CCc2cc(CN3CCCCCC3)ccc2C1)c1ccc(OCC2OCCO2)cc1 [Example 9-3]
14,110,"CC1CCN([C@H](C)c2ccc3c(c2)CC[C@H](NC(=O)c2ccc(OC[C@@H]4CCCO4)cc2)C3)CC1 [Example 10, N-{(S)-6-[(R)-1-(4-Methylpiperidin-1-yl)ethyl]-1,2,3,4-tetrahydronaphthalen-2-yl}-4-[(S)-1-(tetrahydrofuran-2-yl)methoxy]benzamide]"
